For this assay, the target named is MAP4K1 (HPK1) (Homo sapiens (Human), UniProt Q92918). The assay can be described thus: MAP4K1 (HPK1) biochemical enzymatic activity, electrophoretic mobility shift (EZReader 2), ATP at APPKM (26 μM). An excerpt: MAP4K1 (HPK1) and relevant off-target enzymatic activity was monitored using the Perkin Elmer electrophoretic mobility shift technology platform—the EZReader 2. […] Within the linear, steady-state phase of the kinase enzymatic reaction, the mixed pool of phosphorylated (product) and non-phosphorylated (substrate) peptides was passed through the microfluidic system of the PerkinElmer EZ Reader 2, under an applied electric potential difference. The presence of the phosphate group on the product peptide provided a difference in mass and charge between that of the substrate peptide, resulting in a separation of the substrate and product pools in the sample (Perrin et al. 2010). As the product and substrate peptide mixture passes the lasers within the instrument, these pools are detected (λex=488 nm, λent=568 nm) and resolved as separate peaks. The ratio between these peaks reflects the activity of the compound at that concentration, in that well, under those conditions.
Inhibitors were dissolved in 100% DMSO at a stock concentration of 10 mM. A 100×, 10-point, 4-fold serial dilution of each inhibitor was created in 100% DMSO either manually or on a Hamilton STAR liquid handler, starting at a relevant concentration, usually 1 mM. A volume of 0.130 μL of each concentration was transferred to the relevant wells of a 384-well plate (Greiner 781 201) in duplicate using a TTPLabtech Mosquito nano-litre dispenser. Using a Multidrop Combi, the remaining constituents of the kinase reaction were added to the 130 nL of dosed compound as follows (see table below for final reaction details):
Enzyme activity assays at the ^APPKM for ATP or 1 mM ATP: In each well of a 384-well plate, 0.1-15 nM of untreated enzyme was incubated in a total of 13 μL of buffer (100 mM HEPES pH 7.5, 0.015% Brij 35, 10 mM MgCl2, 1 mM DTT) with 1.5 μM fluorescent peptid and 20-1000 μM ATP, at 25° C., for 60-180 minutes in the presence or absence of a dosed concentration series of compound (1% DMSO final concentration). The kinase reactions were stopped by the addition of 70 μl of Stop buffer (100 mM HEPES pH 7.5, 0.015% Brij 35, 35 mM EDTA and 0.2% of Coating Reagent 3 (Caliper Lifesciences)). The plates were read on a Caliper EZReader 2 as described above.

Sequence of MAP4K1 (HPK1) (Q92918 whole entry): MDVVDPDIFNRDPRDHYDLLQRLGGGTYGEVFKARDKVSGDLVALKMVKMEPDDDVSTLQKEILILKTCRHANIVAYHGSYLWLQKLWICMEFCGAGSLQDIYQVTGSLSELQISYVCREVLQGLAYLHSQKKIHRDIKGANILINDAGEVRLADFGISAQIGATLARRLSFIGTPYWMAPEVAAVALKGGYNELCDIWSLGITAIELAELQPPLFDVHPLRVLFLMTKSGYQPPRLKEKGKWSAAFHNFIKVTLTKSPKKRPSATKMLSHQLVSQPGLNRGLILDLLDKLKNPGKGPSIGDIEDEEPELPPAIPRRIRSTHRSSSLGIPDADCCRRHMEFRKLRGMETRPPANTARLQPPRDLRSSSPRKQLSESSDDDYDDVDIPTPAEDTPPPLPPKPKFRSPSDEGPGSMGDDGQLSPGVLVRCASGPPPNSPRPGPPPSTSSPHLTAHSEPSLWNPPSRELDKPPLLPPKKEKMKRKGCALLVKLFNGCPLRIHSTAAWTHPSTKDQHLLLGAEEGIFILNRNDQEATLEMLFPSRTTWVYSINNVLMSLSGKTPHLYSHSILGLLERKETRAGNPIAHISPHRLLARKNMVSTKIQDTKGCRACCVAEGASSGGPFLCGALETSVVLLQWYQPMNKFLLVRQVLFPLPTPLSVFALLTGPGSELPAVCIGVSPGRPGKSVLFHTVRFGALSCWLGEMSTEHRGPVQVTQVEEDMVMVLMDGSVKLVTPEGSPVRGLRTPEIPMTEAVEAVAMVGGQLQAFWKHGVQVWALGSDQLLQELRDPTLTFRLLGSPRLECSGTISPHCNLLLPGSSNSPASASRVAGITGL

The IC50 is the concentration needed to halve the response being measured. `COc1ncc(C(C)(C)N)c2cc(Nc3cnc(C#N)c(C(C)C(F)(F)F)n3)ncc12` (stereo not shown) [Compound 63]: the half-maximal inhibitory concentration (IC50) runs as follows: (class designation) 1.1 to 10 nM; (numeric value) 6.46 nM. As to `C[C@H]1OC(=O)c2ccc(Nc3cc4c(C(C)(C)N)cnc(OC5CC5)c4cn3)nc2[C@@H]1C` [Compound 65], the IC50 (class designation) was 0.31 to 1 nM and the IC50 (numeric value) amounted to 0.56 nM.

Consider `CC[C@@](C)(N)c1cnc(OC2(C)CC2)c2cnc(Nc3ccc4c(n3)[C@@H](C)[C@H](C)OC4=O)cc12` [Compound 84], for which the IC50 is 1.1 to 10 nM (class designation) and 1.32 nM (numeric value). Take `CC[C@@](C)(N)c1cnc(OC2(C)CC2)c2cnc(Nc3ccc4c(n3)[C@@H](C)C(C)(C)OC4=O)cc12` [Compound 86]: the concentration for half-maximal inhibition (IC50) was 1.1 to 10 nM (class designation) and 2.03 nM (numeric value). Turning to `C[C@@H]1OC(=O)c2ccc(Nc3cc4c([C@](C)(N)C5CC5)cnc(OC5(C)CC5)c4cn3)nc2[C@H]1C` [Compound 89], the IC50 is 1.1 to 10 nM (class designation) and 5.12 nM (numeric value). Take `C[C@@H]1c2nc(Nc3cc4c([C@@](C)(N)C5CC5)cnc(OC5(C)CC5)c4cn3)ccc2C(=O)OC1(C)C` [Compound 90]: the IC50 was 1.1 to 10 nM (class designation) and 3.42 nM (numeric value).

For the molecule `CC[C@@](C)(N)c1cnc(OC2(C)CC2)c2cnc(Nc3ccc4c(n3)[C@@H](C)[C@@H](C)OC4=O)cc12` [Compound 93], the IC50 (class designation) lay in the range of 1.1 to 10 nM and the IC50 (numeric value) is 3.65 nM. On to `C[C@@H]1c2nc(Nc3cc4c([C@@](C)(N)C5CC5)cnc(OC5(C)CC5)c4cn3)ccc2C(=O)O[C@@H]1C` [Compound 95], for which the IC50 was 1.1 to 10 nM (class designation) and 4.54 nM (numeric value). As to `COc1ncc([C@@](C)(N)C2CC2)c2cc(Nc3ccc4c(n3)C(C)(C)OC4=O)ncc12` [Compound 98], the IC50 (class designation) is > 10 nM and the IC50 (numeric value) came to 19.1 nM.

`CC1(C)Cc2nc(Nc3cc4c(C(C)(C)N)ccc(Cl)c4cn3)ccc2C(=O)O1` [Compound 104, 2-((5-(2-Aminopropan-2-yl)-8-chloroisoquinolin-3-yl)amino)-7,7-dimethyl-7,8-dihydro-5H-pyrano[4,3-b]pyridin-5-one]: the IC50 runs as follows: (class designation) < 0.3 nM; (numeric value) 0.13 nM. Consider `CC(C)(N)c1cnc(OC2CC2)c2cnc(Nc3ccc4c(n3)C3(CC3)COC4=O)cc12` [Compound 107], for which the half-inhibitory concentration (IC50) by setting is: (class designation) 0.31 to 1 nM; (numeric value) 0.62 nM.

On to `C[C@H]1OC(=O)c2ccc(Nc3cc4c(C(C)(C)N)cnc(OC5CC5)c4cn3)nc2C12CC2` [Compound 119], for which the IC50 reads like this: (class designation) < 0.3 nM; (numeric value) 0.12 nM. Consider `C[C@@H]1OC(=O)c2ccc(Nc3cc4c(C(C)(C)N)cnc(OC5CC5)c4cn3)nc2C12CC2` [Compound 120], for which the IC50 is, setting by setting: (class designation) 0.31 to 1 nM; (numeric value) 0.5 nM. `CC[C@](C)(N)c1cnc(NC2CC2)c2cnc(Nc3ccc4c(n3)[C@@H](C)[C@H](C)OC4=O)cc12` [Compound 122]: the IC50 is, setting by setting: (class designation) < 0.3 nM; (numeric value) 0.16 nM. The corresponding values for `CC1(C)CCc2nc(Nc3cc4c(C(C)(C)N)cnc(OC5CC5)c4cn3)ccc2C(=O)O1` [Compound 125] are 1.1 to 10 nM and 1.84 nM. Take `CC[C@H]1c2nc(Nc3cc4c(C(C)(C)N)cnc(OC5CC5)c4cn3)ccc2C(=O)O[C@H]1C` [Compound 128]: the IC50 was 1.1 to 10 nM (class designation) and 1.09 nM (numeric value). On the same counts, the results for `CC[C@@](C)(N)c1cnc(OC2CC2)c2cnc(Nc3ccc4c(n3)[C@](C)(CC)OC4=O)cc12` [Compound 129] are < 0.3 nM and 0.11 nM. Consider `CC[C@H]1OC(=O)c2ccc(Nc3cc4c(C(C)(C)N)cnc(OC5CC5)c4cn3)nc2[C@@H]1C` [Compound 130], for which the IC50 is, setting by setting: (class designation) 0.31 to 1 nM; (numeric value) 0.46 nM. On to `CC[C@@H]1OC(=O)c2ccc(Nc3cc4c(C(C)(C)N)cnc(OC5CC5)c4cn3)nc2[C@H]1C` [Compound 134], for which the IC50 was 1.1 to 10 nM (class designation) and 1.33 nM (numeric value). Turning to `C[C@@H]1OC(=O)c2ccc(Nc3cc4c(C(C)(C)N)cnc(OC5CC5)c4cn3)nc2C1(C)C` [Compound 137], the IC50 was 0.31 to 1 nM (class designation) and 0.46 nM (numeric value). Regarding `CCCOc1ncc([C@](C)(N)CC)c2cc(Nc3ccc4c(n3)[C@@H](C)[C@H](C)OC4=O)ncc12` [Compound 142], the IC50 is < 0.3 nM (class designation) and 0.2 nM (numeric value). With `CCCOc1ncc([C@](C)(N)CC)c2cc(Nc3ccc4c(n3)CC(C)(C)OC4=O)ncc12` [Compound 143], the IC50 reads like this: (class designation) 0.31 to 1 nM; (numeric value) 0.31 nM.

On to `CCCOc1ncc([C@@](C)(N)CC)c2cc(Nc3ccc4c(n3)CC(C)(C)OC4=O)ncc12` [Compound 144], for which the concentration for half-maximal inhibition (IC50) is 1.1 to 10 nM (class designation) and 3.89 nM (numeric value). With `CCCOc1ncc([C@@](C)(N)CC)c2cc(Nc3ccc4c(n3)[C@@H](C)[C@H](C)OC4=O)ncc12` [Compound 145], the half-maximal inhibitory concentration (IC50) reads like this: (class designation) 1.1 to 10 nM; (numeric value) 1.77 nM. The corresponding values for `C[C@@H]1OC(=O)c2ccc(Nc3cc4c([C@](C)(N)C5CC5)cnc(NC5CC5)c4cn3)nc2[C@H]1C` [Compound 149] are < 0.3 nM and 0.2 nM.

Consider `C[C@@H]1OC(=O)c2ccc(Nc3cc4c([C@@](C)(N)C5CC5)cnc(NC5CC5)c4cn3)nc2[C@H]1C` [Compound 150], for which the IC50 runs as follows: (class designation) 1.1 to 10 nM; (numeric value) 5.24 nM. On the same counts, the results for `COc1ncc(C(C)(C)NC2CCC2)c2cc(Nc3ccc4c(n3)CC(C)(C)OC4=O)ncc12` [Compound 158, 2-((5-(2-(Cyclobutylamino)propan-2-yl)-8-methoxy-2,7-naphthyridin-3-yl)amino)-7,7-dimethyl-7,8-dihydro-5H-pyrano[4,3-b]pyridin-5-one] are 1.1 to 10 nM and 6.46 nM. The corresponding values for `C[C@@H]1OC(=O)c2ccc(Nc3cc4c(C(C)(C)N)cnc(O[C@@H]5CCOC5)c4cn3)nc2[C@H]1C` [Compound 160] are 1.1 to 10 nM and 1.25 nM. As to `C[C@@H]1OC(=O)c2ccc(Nc3cc4c(C(C)(C)N)cnc(O[C@H]5C[C@H](F)C5)c4cn3)nc2[C@H]1C` [Compound 161], the IC50 was 1.1 to 10 nM (class designation) and 1.37 nM (numeric value).

Turning to `C[C@@H]1OC(=O)c2ccc(Nc3cc4c(C(C)(C)N)cnc(OCC5(F)CC5)c4cn3)nc2[C@H]1C` [Compound 162], the IC50 was < 0.3 nM (class designation) and 0.24 nM (numeric value). With `C[C@@H]1OC(=O)c2ccc(Nc3cc4c(C(C)(C)N)cnc(O[C@H]5C[C@@H](F)C5)c4cn3)nc2[C@H]1C` [Compound 163], the half-inhibitory concentration (IC50) (class designation) is < 0.3 nM and the IC50 (numeric value) was determined as 0.25 nM.

Consider `CC1(C)Cc2nc(Nc3cc4c([C@@](C)(N)C5CCC5)cnc(OC5CC5)c4cn3)ccc2C(=O)O1` [Compound 169], for which, for the setting “class designation”, the 50% inhibitory concentration (IC50) lay in the range of 1.1 to 10 nM. For `CC1(C)Cc2nc(Nc3cc4c(C(C)(C)NCCO)cnc(OC5CC5)c4cn3)ccc2C(=O)O1` [Compound 177, 2-((8-Cyclopropoxy-5-(2-((2-hydroxyethyl)amino)propan-2-yl)-2,7-naphthyridin-3-yl)amino)-7,7-dimethyl-7,8-dihydro-5H-pyrano[4,3-b]pyridin-5-one], the IC50 by setting is: (class designation) 1.1 to 10 nM; (numeric value) 6.52 nM. On to `CC1(Oc2ncc([C@](C)(N)C3CC3)c3cc(Nc4ccc5c(n4)C(C)(C)COC5=O)ncc23)CC1` [Compound 185], for which the concentration for half-maximal inhibition (IC50) reads like this: (class designation) 0.31 to 1 nM; (numeric value) 0.35 nM.

Values taken from patent US11534441B2, “MAP4K1 inhibitors” (Blueprint Medicines Corporation, priority 2020, dated 2022).
